Source: USRE40086E1, “Method for treating bacterial infection with novel 7-substituted-9-substituted amino 6-demethyl-6-deoxytetracyclines” (Wyeth Holdings Corporation, priority 1991, dated 2008)

Columns and labels:
Format in all cases: cell-based
E. coli UBMS 89-1 (tetM) = test: MIC, agar dilution; conditions: E. coli UBMS 89-1 TetM; Table IA; unit assumed
[1] = test system: Ps. acruginosa ATCC 27853; test: MIC, agar dilution (Table IA); conditions: unit assumed
S. aureus NEMC 8769/89-4 = test: MIC, agar dilution (Table IA); conditions: unit assumed
S. aureus ROSE (MP) = test: MIC, agar dilution (Table IA); conditions: unit assumed
E. coli J2175 = test: MIC, agar dilution (Table IA); conditions: unit assumed
E. coli UBMS 90-4 (tetM) = test: MIC, agar dilution; conditions: E. coli UBMS 90-4 TetM; Table IA; unit assumed
E. coli BAJ9003 = test: MIC, agar dilution (Table IA); conditions: unit assumed
[2] = test system: S. aureus UBMS 88-5 (tetM); test: MIC, agar dilution; conditions: S. aureus UBMS 88-5 TetM; Table IA; unit assumed
[3] = test system: X. maltophilia NEMC 87210; test: MIC, agar dilution (Table IA); conditions: unit assumed
E. coli UBMS 88-1 (tetB) = test: MIC, agar dilution; conditions: E. coli UBMS 88-1 TetB; Table IA; unit assumed
[4] = test system: S. aureus UBMS 90-2 (tetM); test: MIC, agar dilution; conditions: S. aureus UBMS 90-2 TetM; Table IA; unit assumed
E. coli J3272 TetC = test: MIC, agar dilution (Table IA); conditions: unit assumed
[5] = test system: S. aureus ATCC 29213 (Sensitive); test: MIC, agar dilution; conditions: S. aureus ATCC 29213; Table IA; unit assumed
[6] = test system: S. aureus UBMS 90-1 (tetM); test: MIC, agar dilution; conditions: S. aureus UBMS 90-1 TetM; Table IA; unit assumed
E. coli ATCC 25922 = test: MIC, agar dilution; conditions: E. coli ATCC 25922; Table IA; unit assumed
[7] = test system: S. aureus UBMS 88-4 (Sensitive); test: MIC, agar dilution; conditions: S. aureus UBMS 88-4; Table IA; unit assumed
E. coli #311 (MP) = test: MIC, agar dilution (Table IA); conditions: unit assumed
E. coli MC4100 TetB = test: MIC, agar dilution (Table IA); conditions: unit assumed
[8] = test system: S. aureus UBMS 90-3 (Sensitive); test: MIC, agar dilution; conditions: S. aureus UBMS 90-3; Table IA; unit assumed
S. mariescens FDOR 8733 = test: MIC, agar dilution (Table IA); conditions: unit assumed
[9] = test system: S. aureus IVES 2943 (meth. resistant); test: MIC, agar dilution; conditions: S. aureus IVES 2943; Table IA; unit assumed
E. coli J3272 TetD = test: MIC, agar dilution (Table IA); conditions: unit assumed
[10] = test system: S. haemolyticus AVAH 88-3; test: MIC, agar dilution; conditions: S. hemolyticus AVHAH 88-3; Table IA; unit assumed
E. faecalis ATCC 29212 = test: MIC, agar dilution; conditions: E. faecalis ATCC 29212; Table IA; unit assumed
[11] = test system: E. coli UBMS 89-2 (Sensitive); test: MIC, agar dilution; conditions: E. coli UBMS 89-2 Tet Sens.; Table IA; unit assumed
[12] = test system: S. aureus UBMS 88-7 (tetK); test: MIC, agar dilution; conditions: S. aureus UBMS 88-7 TetK; Table IA; unit assumed
E. coli PRP1 TetA = test: MIC, agar dilution (Table IA); conditions: unit assumed
[13] = test system: S. aureus Smith (Sensitive); test: MIC, agar dilution; conditions: S. aureus SMITH (MP); Table IA; unit assumed
E. faecalis 12201 = test: MIC, agar dilution; conditions: Enterococcus 12201; Table IA; unit assumed
[14] = test system: S. aureus IVES 1983 (meth. resistant); test: MIC, agar dilution; conditions: S. aureus IVES 1983; Table IA; unit assumed
E. coli UBMS 90-5 = test: MIC, agar dilution (Table IA); conditions: unit assumed
E. coli J3272 Tet sens. = test: MIC, agar dilution (Table IA); conditions: unit assumed

Row | Compound | Antibacterial activity (MIC) (E. coli UBMS 89-1 (tetM)) [µg/mL] | Antibacterial activity (MIC) [1] [µg/mL] | Antibacterial activity (MIC) (S. aureus NEMC 8769/89-4) [µg/mL] | Antibacterial activity (MIC) (S. aureus ROSE (MP)) [µg/mL] | Antibacterial activity (MIC) (E. coli J2175) [µg/mL] | Antibacterial activity (MIC) (E. coli UBMS 90-4 (tetM)) [µg/mL] | Antibacterial activity (MIC) (E. coli BAJ9003) [µg/mL] | Antibacterial activity (MIC) [2] [µg/mL] | Antibacterial activity (MIC) [3] [µg/mL] | Antibacterial activity (MIC) (E. coli UBMS 88-1 (tetB)) [µg/mL] | Antibacterial activity (MIC) [4] [µg/mL] | Antibacterial activity (MIC) (E. coli J3272 TetC) [µg/mL] | Antibacterial activity (MIC) [5] [µg/mL] | Antibacterial activity (MIC) [6] [µg/mL] | Antibacterial activity (MIC) (E. coli ATCC 25922) [µg/mL] | Antibacterial activity (MIC) [7] [µg/mL] | Antibacterial activity (MIC) (E. coli #311 (MP)) [µg/mL] | Antibacterial activity (MIC) (E. coli MC4100 TetB) [µg/mL] | Antibacterial activity (MIC) [8] [µg/mL] | Antibacterial activity (MIC) (S. mariescens FDOR 8733) [µg/mL] | further results
1 | CN(C)c1cc(NC(=O)CN2CCCCC2)c(O)c2c1CC1CC3C(N(C)C)C(O)=C(C(N)=O)C(=O)C3(O)C(O)=C1C2=O.Cl.Cl (stereo not drawn) [UU, [7S-(7alpha,10aalpha)]-N-[9-(Aminocarbonyl)-4,7-bis(dimethylamino)-5,5a,6,6a,7,10,10a,12-octahydro-1,8,10a,11-tetrahydroxy-10,12-dioxo-2-naphthacenyl)-1-piperidineacetamide dihydrochloride] | 0.12 | 32 | 0.06 | 0.5 | 0.5 | 0.5 | 0.06 | 0.25 | 0.12 | 0.5 | 0.12 | 0.5 | 0.12 | 0.25 | 0.25 | 0.25 | 0.25 | 0.5 | 0.12 | 4 | Antibacterial activity (MIC) [9]: 0.25 µg/mL; Antibacterial activity (MIC) (E. coli J3272 TetD): 0.25 µg/mL; Antibacterial activity (MIC) [10]: 0.12 µg/mL; Antibacterial activity (MIC) (E. faecalis ATCC 29212): 0.06 µg/mL; Antibacterial activity (MIC) [11]: 0.5 µg/mL; Antibacterial activity (MIC) [12]: 0.25 µg/mL; Antibacterial activity (MIC) (E. coli PRP1 TetA): 1 µg/mL; Antibacterial activity (MIC) [13]: 0.12 µg/mL; Antibacterial activity (MIC) (E. faecalis 12201): 0.12 µg/mL; Antibacterial activity (MIC) [14]: 0.5 µg/mL; Antibacterial activity (MIC) (E. coli UBMS 90-5): 0.5 µg/mL; Antibacterial activity (MIC) (E. coli J3272 Tet sens.): 0.5 µg/mL
2 | CN(C)c1cc(NC(=O)CN2CCC2)c(O)c2c1CC1CC3C(N(C)C)C(O)=C(C(N)=O)C(=O)C3(O)C(O)=C1C2=O (stereo not drawn) [LLL, (7S-(7alpha,10aalpha)]-N-[9-(Aminocarbonyl)-4,7-bis(dimethylamino)-5,5a,6,6a,7,10,10a,12-octahydro-1,8,10a,11-tetrahydroxy-10,12-dioxo-2-naphthacenyl]-1-azetidineacetamide] | 0.25 | 8 | 0.12 | 2 | 0.25 | 0.25 | 0.06 | 0.25 | 1 | 0.5 | 0.25 | 0.5 | 0.25 | 0.25 | 0.25 | 0.25 | 0.25 | 0.5 | 0.12 | 2 | Antibacterial activity (MIC) [9]: 2 µg/mL; Antibacterial activity (MIC) (E. coli J3272 TetD): 0.12 µg/mL; Antibacterial activity (MIC) [10]: 0.25 µg/mL; Antibacterial activity (MIC) (E. faecalis ATCC 29212): 0.25 µg/mL; Antibacterial activity (MIC) [11]: 0.5 µg/mL; Antibacterial activity (MIC) [12]: 2 µg/mL; Antibacterial activity (MIC) (E. coli PRP1 TetA): 1 µg/mL; Antibacterial activity (MIC) [13]: 0.25 µg/mL; Antibacterial activity (MIC) (E. faecalis 12201): 0.25 µg/mL; Antibacterial activity (MIC) [14]: 2 µg/mL; Antibacterial activity (MIC) (E. coli UBMS 90-5): 0.25 µg/mL; Antibacterial activity (MIC) (E. coli J3272 Tet sens.): 0.25 µg/mL
